Experiment: Stability of CBD after encapsulation into nanoparticles, by NMR spectra
Format: physicochemical
Details: NMR spectrum of CBD after encapsulation into nanoparticles (bottom) relative to non-encapsulated CBD sample (top), FIG. 3
Description: In some aspects, the cannabinoid in the dispersion can have a purity of at least 90%. In a further aspect, the purity of the cannabinoid in the dispersion ranges from 90-100%. In a still further aspect, the purity of the cannabinoid in the dispersion ranges from 92-97%. In general, the inventors have discovered that the encapsulation process described herein can be improved with the use of a pure cannabinoid starting material (e.g., from 92-97% pure). Similarly, the nanoparticle encapsulated cannabinoid products can advantageously maintain the purity of the cannabinoid over extended periods of time. In some aspects, the purity of the cannabinoid starting material can be maintained once encapsulated for a period of twelve months or longer, e.g., 18 months or longer, or even 24 months or longer. The stable shelf life of the cannabinoid nanoparticles is an advantage over many existing methods for delivering cannabinoid products. In some aspects, the stability of the cannabinoid can be measured using NMR, e.g., by comparing a pre-encapsulated cannabinoid to a cannabinoid extracted from a nanoparticle prepared by a disclosed method.

C=C(C)[C@@H]1CCC(C)=C[C@H]1c1c(O)cc(CCCCC)cc1O [CBD, cannabidiol]
stability of CBD after encapsulation: remains intact

— patent US20210393540A1, “NANOPARTICLE-ENCAPSULATED CANNABINOIDS AND METHODS FOR MAKING AND USING SAME” (NuRevelation, LLC, priority 2020, published 2021)
